Data taken from patent US12097252B2, “Formulation of a peptide vaccine” (priority 2016, dated 2024).
Marks after values point to notes of the source that are not given here.

Columns and labels:
[1] = system: RAHYNIVTF-specific CD8^+ T cells; test: Strength of T cell response in blood, D^b-[…] tetramer flow cytometry; type: in vivo, C57BL/6 mice; details: for % Tm+ of CD8: emulsified 1:1 with Montanide ISA VG51, s.c.; for % CD62L+ KLRG1+ (% of TM+ CD8 T cells) / % CD62L− KLRG1+ (% of TM+ CD8 T cells): Montanide 1:1
Experimental: On day 9 after vaccination, blood was drawn from the tail vein of all mice. Blood samples were transferred to a 96-wells culture plate and centrifuged for 5 minutes at 1600 rpm. Erythrocytes were lysed by suspending blood cell pellets in Lysis buffer until orange coloration was observed. Subsequently, cells were washed in FACS buffer and stained with the fluorescent antibodies, the D^b-[…]-APC tetramer and 7-AAD mentioned in the Materials section above. After 30 minutes of incubation on ice, cells were washed and analyzed on a BD LSRII flow cytometer in the Leiden University Medical Center (Dept. of Rheumatology).
A study by Van Duikeren et al. (J Immunol, 2012; 189(7): 3397-403) aimed to identify parameters that correlated with the induction of an effective antitumor response. By identifying such biomarkers, different vaccine compositions can be tested in non-tumor bearing mice with prognostic value in tumor models. The authors found a correlation between the expression of KLRG1 and absence of CD62L expression on the one hand and effective antitumor immune responses on the other hand. We determined the percentages of KLRG1- and CD62L-expressing D^b-[…]^+ CD8^+ T cells in the blood of vaccinated mice on day 9 after vaccination using flow cytometry. No difference in percentage of […]-specific KLRG1^+ CD62L^− CD8^+ T cells is observed between groups 3 and 4. Not enough […]-specific CD8+ T cells were detected to reliably study the expression of KLRG1 and CD62L in the groups of mice vaccinated with vehicle only (Group 1 and 2). See Table 10 for the average percentages and standard deviations per group.

[2] = system: TC-1 tumor cells, expressing the oncogenic E6 and E7 proteins of HPV16; test: Therapeutic vaccination of mice carrying TC-1 tumors; type: in vivo, C57BL/6 mice
Experimental: The following groups of mice were included in the study: • Group 1: (n=5) 40% v/v DMSO/WFI emulsified 1:1 with Montanide ISA VG51. • Group 2: (n=5) Reconstitution composition (750 μL 0.1M Citric acid in water, 62.5 μL Propylene Glycol, 125 μL Ethanol and 62.5 μL Cremophor EL per mL) emulsified 1:1 with Montanide ISA VG51. • Group 3: (n=10) SLP […] and 20 μg CpG ODN1826/mouse dissolved in 40% v/v DMSO/WFI, emulsified 1:1 with Montanide ISA VG51. • Group 4: (n=10) SLP […] (SEQ ID NO: 6) and 20 μg CpG ODN1826/mouse dissolved in Reconstitution composition (750 μL 0.1M Citric acid in water, 62.5 μL Propylene Glycol, 125 μL Ethanol and 62.5 μL Cremophor EL per mL), emulsified 1:1 with Montanide ISA VG51.
For mice in Group 1, a solution was prepared by admixing and subsequently swirling 400 μL DMSO and 600 μL WFI. The solution was taken up in a 2 mL Luer-Lock syringe (Syringe A). In another 2 mL Luer-Lock syringe (Syringe B) 1 mL of Montanide ISA VG51 was taken up, after which both syringes were connected to a T-connector. An emulsion was generated by mixing the contents back and forth extensively. After mixing, the syringes were disconnected and a 25 G needle was placed on the syringe containing the emulsion. Per mouse, 100 μL was injected in the left flank subcutaneously.
The vaccine prepared for Group 2 was prepared in an identical manner, only differing by the use of reconstitution composition (750 μL 0.1M citric acid in water and 250 μL PG/EtOH/Cremophor EL 1:2:1, i.e. 0.075M citric acid, 6.25% v/v propylene glycol CAS no. 57-55-6, 12.5% v/v ethanol and 6.25% v/v polyoxyethyleneglyceroltriricinoleate 35 CAS no. 61791-12-6 in water) instead of DMSO and WFI. […]
TC-1 tumor cells, expressing the oncogenic E6 and E7 proteins of HPV16 were cultured in complete IMDM culture medium, supplemented with 400 μg/ml geneticin. […] The tumor size of all mice was monitored at least twice a week using a caliper up to 75 days after tumor challenge.

[3] = Group 3 average: SLP SEQ ID NO: 6 + CpG ODN1826 in 40% v/v DMSO/WFI, blood day 9 after vaccination
[4] = Group 4 average: SLP SEQ ID NO: 6 + CpG ODN1826 in Reconstitution composition, blood day 9 after vaccination

Q: “GQAEPDRAHYNIVTFCCKCDSTLRLCVQSTHVDIR [SLP 6]” was tested. Which “% Tm+ of CD8” value ([1]; Group 3 average: SLP SEQ ID NO: 6 + 20 μg CpG ODN1826/mouse in 40% v/v DMSO/WFI, blood day 9 after vaccination) did it give?
A: 1.4%

Q: And the “% CD62L+ KLRG1+ (% of TM+ CD8 T cells)” value [1, 3]?
A: 4.0%

Q: And the “% CD62L− KLRG1+ (% of TM+ CD8 T cells)” value [1, 3]?
A: 51.9%

Q: What about the “% Tm+ of CD8” value ([1]; Group 4 average: SLP SEQ ID NO: 6 + 20 μg CpG ODN1826/mouse in Reconstitution composition (0.1M citric acid/PG/EtOH/Cremophor EL), blood day 9, p < 0.05 vs group 3) of the same sequence?
A: 4.8* %

Q: What about the “% CD62L+ KLRG1+ (% of TM+ CD8 T cells)” value [1, 4] of the same sequence?
A: 4.0%

Q: What about the “% CD62L− KLRG1+ (% of TM+ CD8 T cells)” value [1, 4] of the same sequence?
A: 52.2%

Q: And the “percentage of induced D^b-RAYNIVTF (tetramer) positive CD8^+ T cells” value ([1]; group 4 (Rec. composition+SLP) vs group 3 (DMSO+SLP), p=0.022)?
A: enhanced tetramer-positive CD8^+ T cell response

Q: And the “outgrowth of TC-1 tumors” value ([2]; SLP 6 and CpG1826 in DMSO/WFI or Reconstitution composition, Montanide emulsion, s.c. day 8, monitored up to 75 days)?
A: Tumor regression is observed in all mice

Q: What about the “overall tumor outgrowth, comparison of formulations” value ([2]; SLP 6 dissolved in DMSO/WFI vs Reconstitution composition) of the same sequence?
A: No differences were observed in overall tumor outgrowth

Q: What about the Kaplan-Meier survival ([2]; SLP-vaccinated groups: DMSO/WFI vs Reconstitution composition) of the same sequence?
A: no differences between the vaccinated groups
